{"source": "ChEMBL document CHEMBL5614443", "about": "“Hybrids of 3-Hydroxypyridin-4(1H)-ones and Long-Chain 4-Aminoquinolines as Potent Biofilm Inhibitors of Pseudomonas aeruginosa Potentiate Tobramycin and Polymyxin B Activity” (J Med Chem, 2024)", "key": {"Pseudomonas aeruginosa [1]": {"tested_on": "Pseudomonas aeruginosa", "assay": "Antibiofilm activity against Pseudomonas aeruginosa PAO1 assessed as decrease in biofilm formation incubated for 24 hrs by LIVE/DEAD BacLight staining based 3D confocal laser scanning microscopy", "assay_type": "functional, organism-based", "conditions": "dose 1-10 µM"}, "[2]": {"assay": "Inhibition of quorum sensing system in wildtype Pseudomonas aeruginosa PAO1 assessed as inhibition of rhamnolipid production incubated for 24 hrs by absorbance based microtiter plate reader analysis"}, "[3]": {"assay": "Inhibition of quorum sensing system in wildtype Pseudomonas aeruginosa PAO1 assessed as inhibition of pyocyanin production incubated for 24 hrs by absorbance based analysis"}, "[4]": {"assay": "Inhibition of quorum sensing system in Pseudomonas aeruginosa PAO1 transfected with mini-ctx-pqsA-lacZ reporter gene assessed as decrease in beta-galactosidase activity incubated for 6 hrs by Miller assay", "conditions": "dose 1.25-20 µM"}, "Pseudomonas aeruginosa [5]": {"tested_on": "Pseudomonas aeruginosa", "assay": "Antibiofilm activity against Pseudomonas aeruginosa harboring pvds-deficient mutant assessed as inhibition of biofilm formation at 0.1 to 20 uM incubated for 24 hrs by crystal violet staining based analysis", "assay_type": "functional, organism-based", "conditions": "dose 0.1-20 µM"}, "Pseudomonas aeruginosa [6]": {"tested_on": "Pseudomonas aeruginosa", "assay": "Antibiofilm activity against Pseudomonas aeruginosa overexpressing fpvA assessed as inhibition of biofilm formation at 20 uM incubated for 24 hrs by crystal violet staining based analysis relative to control", "assay_type": "functional"}, "Pseudomonas aeruginosa [7]": {"tested_on": "Pseudomonas aeruginosa", "assay": "Inhibition of motility in Pseudomonas aeruginosa PAO1 assessed as reduction in swarming movements incubated for 16 hrs by motility assay", "assay_type": "functional, organism-based", "conditions": "dose 1.25-50 µM"}, "Pseudomonas aeruginosa [8]": {"tested_on": "Pseudomonas aeruginosa", "assay": "Inhibition of motility in Pseudomonas aeruginosa PAO1 assessed as reduction in swimming movements incubated for 16 hrs by motility assay", "assay_type": "functional, organism-based", "conditions": "dose 1.25-50 µM"}, "Pseudomonas aeruginosa [9]": {"tested_on": "Pseudomonas aeruginosa", "assay": "Inhibition of motility in Pseudomonas aeruginosa PAO1 assessed as reduction in twitching movements at 50 uM incubated for 16 hrs by motility assay", "assay_type": "functional, organism-based"}, "Pseudomonas aeruginosa [10]": {"tested_on": "Pseudomonas aeruginosa", "assay": "Antibacterial activity against Pseudomonas aeruginosa clinical isolate 1129 assessed as inhibition of bacterial growth incubated for 24 hrs by CLSI protocol based method", "assay_type": "functional, organism-based"}, "Pseudomonas aeruginosa [11]": {"tested_on": "Pseudomonas aeruginosa", "assay": "Antibacterial activity against Pseudomonas aeruginosa clinical isolate 0807 assessed as inhibition of bacterial growth incubated for 24 hrs by CLSI protocol based method", "assay_type": "functional, organism-based"}, "Pseudomonas aeruginosa [12]": {"tested_on": "Pseudomonas aeruginosa", "assay": "Antibacterial activity against Pseudomonas aeruginosa clinical isolate 1167 assessed as inhibition of bacterial growth incubated for 24 hrs by CLSI protocol based method", "assay_type": "functional, organism-based"}, "Pseudomonas aeruginosa [13]": {"tested_on": "Pseudomonas aeruginosa", "assay": "Antibacterial activity against Pseudomonas aeruginosa clinical isolate 1074 assessed as inhibition of bacterial growth incubated for 24 hrs by CLSI protocol based method", "assay_type": "functional, organism-based"}, "Pseudomonas aeruginosa [14]": {"tested_on": "Pseudomonas aeruginosa", "assay": "Antivirulence activity in Pseudomonas aeruginosa clinical isolate 1167 assessed as reduction in elastase production at 10 uM incubated for 24 hrs by elastin-congo red dye based absorbance assay", "assay_type": "functional, organism-based"}, "Pseudomonas aeruginosa [15]": {"tested_on": "Pseudomonas aeruginosa", "assay": "Antivirulence activity in Pseudomonas aeruginosa clinical isolate 1167 assessed as reduction in rhamnolipid production at 10 uM incubated for 24 hrs by absorbance based microtiter plate reader analysis", "assay_type": "functional, organism-based"}, "Pseudomonas aeruginosa [16]": {"tested_on": "Pseudomonas aeruginosa", "assay": "Antivirulence activity in Pseudomonas aeruginosa clinical isolate 1121 assessed as reduction in rhamnolipid production at 10 uM incubated for 24 hrs by absorbance based microtiter plate reader analysis", "assay_type": "functional, organism-based"}, "Pseudomonas aeruginosa [17]": {"tested_on": "Pseudomonas aeruginosa", "assay": "Antibiofilm activity against Pseudomonas aeruginosa clinical isolate 1167 assessed as reduction in biofilm content at 10 uM incubated for 24 hrs by crystal violet staining based analysis", "assay_type": "functional, organism-based"}, "Pseudomonas aeruginosa [18]": {"tested_on": "Pseudomonas aeruginosa", "assay": "Antibacterial activity against Pseudomonas aeruginosa PAO1 assessed as bacterial survival rate at 10 to 50 uM incubated for 24 hrs by LB agar plate method relative to control", "assay_type": "functional", "conditions": "dose 10-50 µM"}, "Pseudomonas aeruginosa [19]": {"tested_on": "Pseudomonas aeruginosa", "assay": "Synergistic antibacterial activity against Pseudomonas aeruginosa PAO1 assessed as fold reduction in bacterial survival rate at 50 uM incubated for 24 hrs in presence of 1/2 MIC of […] by LB agar plate method relative to polymyxin B alone", "assay_type": "functional"}, "Pseudomonas aeruginosa [20]": {"tested_on": "Pseudomonas aeruginosa", "assay": "Synergistic antibacterial activity against Pseudomonas aeruginosa PAO1 assessed as bacterial survival rate at 50 uM incubated for 24 hrs in presence of 1/2 MIC of tobramycin by LB agar plate method relative to control", "assay_type": "functional"}, "Pseudomonas aeruginosa [21]": {"tested_on": "Pseudomonas aeruginosa", "assay": "Synergistic antibacterial activity against Pseudomonas aeruginosa PAO1 assessed as fold reduction in bacterial survival rate incubated for 24 hrs in presence of norfloxacin by LB agar plate method", "assay_type": "functional"}, "Pseudomonas aeruginosa [22]": {"tested_on": "Pseudomonas aeruginosa", "assay": "Synergistic antibacterial activity against Pseudomonas aeruginosa PAO1 assessed as fold reduction in bacterial survival rate incubated for 24 hrs in presence of meropenem by LB agar plate method", "assay_type": "functional"}, "Pseudomonas aeruginosa [23]": {"tested_on": "Pseudomonas aeruginosa", "assay": "Synergistic antibacterial activity against Pseudomonas aeruginosa PAO1 assessed as fold reduction in bacterial survival rate incubated for 24 hrs in presence of azithromycin by LB agar plate method", "assay_type": "functional"}, "Pseudomonas aeruginosa [24]": {"tested_on": "Pseudomonas aeruginosa", "assay": "Synergistic antibacterial activity against Pseudomonas aeruginosa PAO1 assessed as fold reduction in bacterial survival rate incubated for 24 hrs in presence of tetracycline by LB agar plate method", "assay_type": "functional"}, "Pseudomonas aeruginosa [25]": {"tested_on": "Pseudomonas aeruginosa", "assay": "Synergistic antibacterial activity against Pseudomonas aeruginosa clinical isolate 0815 assessed as reduction in bacterial viability at 10 to 50 uM incubated for 24 hrs in presence of 1/2 MIC of tobramycin by LB agar plate method", "assay_type": "functional, organism-based", "conditions": "dose 10-50 µM"}, "Pseudomonas aeruginosa [26]": {"tested_on": "Pseudomonas aeruginosa", "assay": "Synergistic antibacterial activity against Pseudomonas aeruginosa clinical isolate 1167 assessed as reduction in bacterial viability at 10 to 50 uM incubated for 24 hrs in presence of 1/8 MIC of tobramycin by LB agar plate method", "assay_type": "functional, organism-based", "conditions": "dose 10-50 µM"}, "Pseudomonas aeruginosa [27]": {"tested_on": "Pseudomonas aeruginosa", "assay": "Synergistic antibacterial activity against Pseudomonas aeruginosa clinical isolate 0815 assessed as reduction in bacterial viability at 10 to 50 uM incubated for 24 hrs in presence of 1/2 MIC of polymyxin B by LB agar plate method", "assay_type": "functional, organism-based", "conditions": "dose 10-50 µM"}, "Pseudomonas aeruginosa [28]": {"tested_on": "Pseudomonas aeruginosa", "assay": "Synergistic antibacterial activity against Pseudomonas aeruginosa clinical isolate 0815 assessed as reduction in bacterial viability at 10 to 50 uM incubated for 24 hrs in presence of 1/4 MIC of polymyxin B by LB agar plate method", "assay_type": "functional, organism-based", "conditions": "dose 10-50 µM"}, "Pseudomonas aeruginosa [29]": {"tested_on": "Pseudomonas aeruginosa", "assay": "Synergistic antibacterial activity against Pseudomonas aeruginosa clinical isolate 1121 assessed as reduction in bacterial viability at 10 to 50 uM incubated for 24 hrs in presence of 1/8 MIC of polymyxin B by LB agar plate method", "assay_type": "functional, organism-based", "conditions": "dose 10-50 µM"}, "Pseudomonas aeruginosa [30]": {"tested_on": "Pseudomonas aeruginosa", "assay": "Synergistic antibacterial activity against Pseudomonas aeruginosa clinical isolate 1121 assessed as fold reduction in bacterial viability at 50 uM incubated for 24 hrs in presence of 1/2 MIC of polymyxin B by LB agar plate method relative to polymyxin B alone", "assay_type": "functional"}, "[31]": {"assay": "Hemolytic activity in rabbit erythrocytes assessed as hemolysis rate at 200 uM incubated for 2 hrs by microplate reader analysis (reference value: 100 %)", "assay_type": "toxicity, cell-based, Oryctolagus cuniculus, Erythrocyte", "conditions": "read-out: Activity"}, "[32]": {"assay": "Cytotoxicity against African green monkey Vero cells assessed as reduction in cell viability at <=100 uM incubated for 24 hrs by MTT assay", "assay_type": "toxicity, cell-based", "conditions": "chlorocebus sabaeus"}, "[33]": {"assay": "Cytotoxicity against African green monkey Vero cells assessed as reduction in cell viability at 200 uM incubated for 24 hrs by MTT assay", "assay_type": "toxicity, cell-based", "conditions": "chlorocebus sabaeus"}, "[34]": {"assay": "Toxicity in Caenorhabditis elegans assessed as effect on survival upto 200 uM incubated for 72 hrs by bright-field microscopic analysis"}, "Pseudomonas aeruginosa [35]": {"tested_on": "Pseudomonas aeruginosa", "assay": "Induction of Fe3+ chelating activity in Pseudomonas aeruginosa PAO1 assessed as increase in pyochelin production by measuring fold change at 50 uM incubated for 24 hrs by fluorescence microplate reader"}, "Pseudomonas aeruginosa [36]": {"tested_on": "Pseudomonas aeruginosa", "assay": "Induction of Fe3+ chelating activity in Pseudomonas aeruginosa PAO1 assessed as increase in pyoverdine production by measuring fold change at 50 uM incubated for 24 hrs by fluorescence microplate reader"}}, "note": "pIC50: −log10 of the molar value. Activity calls are given as the source filed them. The rule behind the calls is not given here.", "data": [{"smiles": "Cc1cc(=O)c(O)c(C(=O)NCCCCCCCCNc2ccnc3cc(Cl)ccc23)n1C.Cl", "values": [{"measurement": "Activity", "setting": "Pseudomonas aeruginosa [1]", "value": "Dose-Dependent Effect"}, {"measurement": "pIC50", "setting": "[2]", "value": 4.41}, {"measurement": "pIC50", "setting": "[3]", "value": 5.16}, {"measurement": "inhibition", "setting": "[4]", "value": "Dose-Dependent Effect"}, {"measurement": "Activity", "setting": "Pseudomonas aeruginosa [5]", "value": "Active"}, {"measurement": "inhibition at 20 µM", "setting": "Pseudomonas aeruginosa [6]", "value": "~30", "unit": "%"}, {"measurement": "inhibition", "setting": "Pseudomonas aeruginosa [7]", "value": "Dose-Dependent Effect"}, {"measurement": "inhibition", "setting": "Pseudomonas aeruginosa [8]", "value": "Dose-Dependent Effect"}, {"measurement": "inhibition", "setting": "Pseudomonas aeruginosa [9]", "value": "Active"}, {"measurement": "Activity", "setting": "Pseudomonas aeruginosa [10]", "value": "inactive"}, {"measurement": "Activity", "setting": "Pseudomonas aeruginosa [11]", "value": "inactive"}, {"measurement": "Activity", "setting": "Pseudomonas aeruginosa [12]", "value": "inactive"}, {"measurement": "Activity", "setting": "Pseudomonas aeruginosa [13]", "value": "inactive"}, {"measurement": "Activity", "setting": "Pseudomonas aeruginosa [14]", "value": "Active"}, {"measurement": "Activity", "setting": "Pseudomonas aeruginosa [15]", "value": "Active"}, {"measurement": "Activity", "setting": "Pseudomonas aeruginosa [16]", "value": "Active"}, {"measurement": "Activity", "setting": "Pseudomonas aeruginosa [17]", "value": "Active"}, {"measurement": "Survival", "setting": "Pseudomonas aeruginosa [18]", "value": "~100", "unit": "%"}, {"measurement": "fold change (FC)", "setting": "Pseudomonas aeruginosa [19]", "value": "~100"}, {"measurement": "survival at 50 µM", "setting": "Pseudomonas aeruginosa [20]", "value": "< 0.2", "unit": "%"}, {"measurement": "fold change (FC)", "setting": "Pseudomonas aeruginosa [21]", "value": "<10"}, {"measurement": "fold change (FC)", "setting": "Pseudomonas aeruginosa [22]", "value": "<10"}, {"measurement": "fold change (FC)", "setting": "Pseudomonas aeruginosa [23]", "value": "<10"}, {"measurement": "fold change (FC)", "setting": "Pseudomonas aeruginosa [24]", "value": "<10"}, {"measurement": "Activity", "setting": "Pseudomonas aeruginosa [25]", "value": "Active"}, {"measurement": "Activity", "setting": "Pseudomonas aeruginosa [26]", "value": "Active"}, {"measurement": "Activity", "setting": "Pseudomonas aeruginosa [27]", "value": "Active"}, {"measurement": "Activity", "setting": "Pseudomonas aeruginosa [28]", "value": "Active"}, {"measurement": "Activity", "setting": "Pseudomonas aeruginosa [29]", "value": "Active"}, {"measurement": "fold change (FC)", "setting": "Pseudomonas aeruginosa [30]", "value": 15}, {"measurement": "hemolysis at 2 h, 200 µM", "setting": "[31]", "value": "< 1.5", "unit": "%"}, {"measurement": "Activity", "setting": "[32]", "value": "Non-Toxic"}, {"measurement": "Activity", "setting": "[33]", "value": "Toxic"}, {"measurement": "Activity", "setting": "[34]", "value": "Non-Toxic"}, {"measurement": "fold change (FC)", "setting": "Pseudomonas aeruginosa [35]", "value": 2}, {"measurement": "fold change (FC)", "setting": "Pseudomonas aeruginosa [36]", "value": 16}]}]}
